Test results from patent US9862678B2, “3,4-diaminobenzenesulfonamide derivatives for inhibiting cell death” (VIB VZW, priority 2014, dated 2018).

System: IMR-32 neuroblastoma cell line
Experiment: Inhibition of erastin-induced ferroptosis in IMR-32 cells (Sytox Green cell death readout)
Format: cell-based
Settings: Homo sapiens; inhibiting ferroptosis in the IMR-32 neuroblastoma cell line stimulated with 10 μM erastin; compounds 1 nM to 1 μM, triplicate
Description: In the present disclosure, the potency of a compound inhibiting (or reducing) ferroptosis and/or oxytosis are determined in in vitro or in vivo assays. Typically in vitro assays are used to measure the potency of a candidate compound. Examples of suitable in vitro assays are cellular assays. One non-limiting example of an assay involves the use of the IMR-32 neuroblastoma cell line. The latter is stimulated to enter into ferroptosis upon stimulation with 10 μM erastin, a documented ferroptosis inducer (see, for example, Dixon et al. (2012) Cell 149, 1060-1072, and ferroptosis inhibitors are evaluated for the prevention of erastin-induced ferroptosis. Yet another assay is based the glutamate-induced cell death in the hippocampal cell line HT22 and ferroptosis/oxytosis inhibitors are evaluated for the prevention of cell death (see N. Henke et al. (2013) Cell Death and Disease 4, e470). Still another assay is based on the sorafinib-induced cell death (described to be iron dependent cell death) in hepatocellular carcinoma cells and ferroptosis inhibitors are evaluated for the prevention of cell death (see C. Louandre et al. (2013) Int. J. Cancer 133, 1732). The calculated potency of a compound inhibiting ferroptosis and/or oxytosis is typically depicted as an IC50 value. Examples of suitable in vivo assays are typically pre-clinical disease models of, for example, mice for the diseases benefiting the application of ferroptosis and/or oxytosis inhibitors, as described herein. One non-limiting example of an in vivo assay is based on inducing liver damage in mice by administering the herbicide diquat dibromide monohydrate and ferroptosis inhibitors are evaluated based on reduced levels of liver transaminases in serum (see Q. Ran et al. (2004) J. Biol. Chem. 279, 53, 55137).
The IC50 values for the individual compounds of the disclosure were determined in the neuroblastoma, IMR-32 cell line. In brief, IMR-32 cells were subjected to 10 μM erastin, the latter compound is known to induce ferroptosis. A concentration gradient (ranging from 1 nM to 1 μM) of the compounds was applied to the cells. These experiments were performed in a 96-well format (in triplicate), and cell death was analyzed in a fluorescent plate reader by use of a fluorescent cell death dye (1.5 μM Sytox Green). The IC50 values depicted in Table 1 are the concentration values for the individual compounds which are able to overcome ferroptosis.

In order of falling IC50:
1. CC(C)(C)OCCNS(=O)(=O)c1ccc(NC2CCCCC2)c(N)c1 [Compound 30, 3-amino-N-(2-(tert-butoxy)ethyl)-4-(cyclohexylamino)benzenesulfonamide]  132 nM
2. CCNS(=O)(=O)c1ccc(NC2CC2)c(NCc2ccncc2)c1 [Compound 34, 4-(cyclopropylamino)-N-ethyl-3-((pyridin-4-ylmethyl)amino)benzenesulfonamide]  128 nM
3. CCNS(=O)(=O)c1ccc(NC2CCCC2)c(N)c1 [Compound 21, 3-amino-4-(cyclopentylamino)-N-ethylbenzenesulfonamide]  82 nM
4. CCNS(=O)(=O)c1ccc(NC2CC2)c(N)c1 [Compound 20, 3-amino-4-(cyclopropylamino)-N-ethylbenzenesulfonamide]  76 nM
5. CNS(=O)(=O)c1ccc(NC2CCCCC2)c(N)c1 [Compound 26, 3-amino-4-(cyclohexylamino)-N-methylbenzenesulfonamide]  76 nM
6. CCNS(=O)(=O)c1ccc(NC2CC2)c(NCc2ccccc2)c1 [Compound 33, 3-(benzylamino)-4-(cyclopropylamino)-N-ethylbenzenesulfonamide]  61 nM
7. CCNS(=O)(=O)c1ccc(NC2CCCC2)c(NCc2ccncc2)c1 [Compound 36, 4-(cyclopentylamino)-N-ethyl-3-((pyridin-4-ylmethyl)amino)benzenesulfonamide]  36 nM
8. CCNS(=O)(=O)c1ccc(NC2CC3CCC2C3)c(N)c1 (stereo not shown) [Compound 23, 3-amino-4-(bicyclo[2.2.1]heptan-2-ylamino)-N-ethylbenzenesulfonamide]  28 nM
9. CC(C)(C)NS(=O)(=O)c1ccc(NC2CCCCC2)c(N)c1 [Compound 28, 3-amino-N-(tert-butyl)-4-(cyclohexylamino)benzenesulfonamide]  27 nM
10. CCNS(=O)(=O)c1ccc(NC2CCCCC2)c(NCc2ccncc2)c1 [Compound 38, 4-(cyclohexylamino)-N-ethyl-3-((pyridin-4-ylmethyl)amino)benzenesulfonamide]  23 nM
11. CCNS(=O)(=O)c1ccc(NC2CCCCCCC2)c(NCc2ccncc2)c1 [Compound 43, 4-(cyclooctylamino)-N-ethyl-3-((pyridin-4-ylmethyl)amino)benzenesulfonamide]  22 nM
12. CCNS(=O)(=O)c1ccc(NC2C3CC4CC(C3)CC2C4)c(N)c1 (stereo not shown) [Compound 25, 4-(adamantan-2-ylamino)-3-amino-N-ethylbenzenesulfonamide]  17 nM
13. CNS(=O)(=O)c1ccc(NC2C3CC4CC(C3)CC2C4)c(N)c1 (stereo not shown) [Compound 27, 3-amino-4-(adamantan-2-ylamine)-N-methylbenzenesulfonamide]  11 nM
14. CCNS(=O)(=O)c1ccc(NC2CC3CCC2C3)c(NCc2ccncc2)c1 (stereo not shown) [Compound 41, 4-(bicyclo[2.2.1]heptan-2-ylamino)-N-ethyl-3-((pyridin-4-ylmethyl)amino) benzenesulfonamide]  9.4 nM
15. CCNS(=O)(=O)c1ccc(NC2CCCCCCC2)c(N)c1 [Compound 24, 3-amino-4-(cyclooctylamino)-N-ethylbenzenesulfonamide]  9.3 nM
16. CCNS(=O)(=O)c1ccc(NC2CCCC2)c(NCc2ccccc2)c1 [Compound 35, 3-(benzylamino)-4-(cyclopentylamino)-N-ethylbenzenesulfonamide]  8.2 nM
17. CC(C)(C)NS(=O)(=O)c1ccc(NC2C3CC4CC(C3)CC2C4)c(N)c1 (stereo not shown) [Compound 29, 3-amino-N-(tert-butyl)-4-(adamantan-2-ylamine)benzenesulfonamide]  6 nM
18. CCNS(=O)(=O)c1ccc(NC2CC3CCC2C3)c(NCc2ccccc2)c1 (stereo not shown) [Compound 40, 3-(benzylamino)-4-(bicyclo[2.2.1]heptan-2-ylamino)-N-ethylbenzenesulfonamide]  3 nM
19. CCNS(=O)(=O)c1ccc(NC2CCCCCCC2)c(NCc2ccccc2)c1 [Compound 42, 3-(benzylamino)-4-(cyclooctylamino)-N-ethylbenzenesulfonamide]  2.4 nM
